{"source": "paper PMC10395314", "about": "(RSC Advances, 2023)", "key": {"VEGFR-2 [1]": {"target": "VEGFR-2 (Homo sapiens, UniProt P35968)", "sequence (P35968 20-1356)": "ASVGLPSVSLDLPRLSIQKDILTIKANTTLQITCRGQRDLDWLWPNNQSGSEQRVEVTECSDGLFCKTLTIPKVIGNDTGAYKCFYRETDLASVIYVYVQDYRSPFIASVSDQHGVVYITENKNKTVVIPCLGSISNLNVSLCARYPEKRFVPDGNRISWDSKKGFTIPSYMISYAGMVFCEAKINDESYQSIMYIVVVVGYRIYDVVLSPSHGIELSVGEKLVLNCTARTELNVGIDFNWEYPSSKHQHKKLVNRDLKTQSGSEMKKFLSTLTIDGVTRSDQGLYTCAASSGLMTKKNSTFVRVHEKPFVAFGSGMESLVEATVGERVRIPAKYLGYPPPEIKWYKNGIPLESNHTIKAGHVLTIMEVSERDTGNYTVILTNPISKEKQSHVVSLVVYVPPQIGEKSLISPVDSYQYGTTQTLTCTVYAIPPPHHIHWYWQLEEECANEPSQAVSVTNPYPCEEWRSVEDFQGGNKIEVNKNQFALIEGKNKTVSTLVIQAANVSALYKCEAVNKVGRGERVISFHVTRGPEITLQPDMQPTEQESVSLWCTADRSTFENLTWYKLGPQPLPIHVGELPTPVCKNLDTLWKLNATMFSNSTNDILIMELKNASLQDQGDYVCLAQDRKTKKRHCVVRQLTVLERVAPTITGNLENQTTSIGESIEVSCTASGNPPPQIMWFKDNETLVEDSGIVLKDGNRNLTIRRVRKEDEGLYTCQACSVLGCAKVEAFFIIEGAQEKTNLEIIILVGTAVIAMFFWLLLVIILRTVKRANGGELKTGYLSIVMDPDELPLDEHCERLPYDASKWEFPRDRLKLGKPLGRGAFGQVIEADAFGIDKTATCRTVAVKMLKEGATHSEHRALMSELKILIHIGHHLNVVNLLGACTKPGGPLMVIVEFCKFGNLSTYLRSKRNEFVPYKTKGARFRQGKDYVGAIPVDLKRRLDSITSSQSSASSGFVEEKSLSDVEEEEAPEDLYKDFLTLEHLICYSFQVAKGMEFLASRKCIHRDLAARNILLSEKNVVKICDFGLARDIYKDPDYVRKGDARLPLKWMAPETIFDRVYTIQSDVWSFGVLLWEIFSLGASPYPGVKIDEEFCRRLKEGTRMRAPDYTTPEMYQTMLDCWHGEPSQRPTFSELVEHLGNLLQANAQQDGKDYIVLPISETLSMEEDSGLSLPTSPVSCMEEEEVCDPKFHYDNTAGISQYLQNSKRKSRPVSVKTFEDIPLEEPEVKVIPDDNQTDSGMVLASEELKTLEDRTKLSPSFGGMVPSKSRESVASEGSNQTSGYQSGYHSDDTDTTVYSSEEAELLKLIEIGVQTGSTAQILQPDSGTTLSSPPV", "test": "In vitro VEGFR-2 inhibition", "format": "biochemical"}, "HepG2 cells [2]": {"test_system": "HepG2 cells", "test": "Wound healing", "format": "cell-based, human"}, "caspase-9": {"test_system": "caspase-9", "test": "Caspase-9 level in HepG2 cells", "format": "cell-based, human"}, "caspase-3": {"test_system": "caspase-3", "test": "Caspase-3 level in HepG2 cells", "format": "cell-based, human"}, "Vero cells": {"test_system": "Vero cells", "test": "Safety assay on non-cancerous Vero cells", "format": "cell-based"}, "MCF-7": {"test_system": "MCF-7", "test": "MTT anti-proliferative assay on MCF-7", "conditions": "Homo sapiens, MCF7, read-out: In vitro cytotoxicity IC50 MCF-7"}, "VEGFR-2 [3]": {"test_system": "VEGFR-2", "test": "MM-GBSA binding free energy and decomposition", "conditions": "15a versus sorafenib"}, "HepG2": {"test_system": "HepG2", "test": "MTT anti-proliferative assay on HepG2", "conditions": "Homo sapiens, HepG2, read-out: In vitro cytotoxicity IC50 HepG2"}, "HepG2 cells [4]": {"test_system": "HepG2 cells", "test": "Apoptosis assay, Annexin V-FITC/PI flow cytometry", "format": "cell-based, human"}, "[5]": {"conditions": "HepG2, 0.76 μM, control HepG2 = 1"}}}
{"smiles": "CC(=NNC(=O)c1cccc(Br)c1)c1ccc(NC(=O)Cn2c(=O)c3c(ncn3C)n(C)c2=O)cc1", "note": "[Compound 15a, N-(4-(1-(2-(3-Bromobenzoyl)hydrazono)ethyl)phenyl)-2-(3,7-dimethyl-2,6-dioxo-2,3,6,7-tetrahydro-1H-purin-1-yl)acetamide]", "values": [{"measurement": "IC50", "setting": "VEGFR-2 [1]", "value": 0.239, "unit": "µM"}, {"measurement": "decrease of scratch width", "setting": "HepG2 cells [2]; HepG2, within 48 hours, untreated 65.9%", "value": 34.17, "unit": "%"}, {"measurement": "At 0 h Area", "setting": "HepG2 cells [2]; HepG2 scratch, 0 h", "value": 1000.667}, {"measurement": "At 0 h Width", "setting": "HepG2 cells [2]; HepG2 scratch, 0 h", "value": 999.7462}, {"measurement": "At 48 h Width", "setting": "HepG2 cells [2]; HepG2 scratch, 48 h, control 339.5385", "value": 657.7792}, {"measurement": "At 48 h Area", "setting": "HepG2 cells [2]; HepG2 scratch, 48 h, control 340.5", "value": 658.6667}, {"measurement": "RM", "setting": "HepG2 cells [2]; HepG2 scratch, after 48 hours, control 13.74681", "value": 7.124, "unit": "μm"}, {"measurement": "Wound closure", "setting": "HepG2 cells [2]; HepG2 scratch, after 48 hours, control 65.96135", "value": 34.18, "unit": "% μm^2"}, {"measurement": "increase of caspase-9 level compared to control", "setting": "caspase-9; HepG2, 0.76 μM (IC50 value)", "value": 2.37, "unit": "fold"}, {"measurement": "Protein expression Caspase-9", "setting": "caspase-9; [5]", "value": 2.378}, {"measurement": "increase of caspase-3 level compared to control", "setting": "caspase-3; HepG2, 0.76 μM (IC50 value)", "value": 3.45, "unit": "fold"}, {"measurement": "Protein expression Caspase-3", "setting": "caspase-3; [5]", "value": 3.451}, {"measurement": "IC50", "setting": "Vero cells; Chlorocebus sabaeus, Vero, read-out: IC50 against Vero cells", "value": 75.2, "unit": "µM"}, {"measurement": "selectivity index against HepG2", "setting": "Vero cells; based on Vero IC50 versus HepG2 IC50", "value": 98.97}, {"measurement": "selectivity index against MCF7", "setting": "Vero cells; based on Vero IC50 versus MCF-7 IC50", "value": 69.64}, {"measurement": "IC50", "setting": "MCF-7", "value": "1.08 ± 0.02", "unit": "µM"}, {"measurement": "MM-GBSA binding energy smaller than that of the reference compound by", "setting": "VEGFR-2 [3]", "value": 8.5, "unit": "kcal/mol"}, {"measurement": "IC50", "setting": "HepG2", "value": "0.76 ± 0.01", "unit": "µM"}, {"measurement": "Apoptosis Late", "setting": "HepG2 cells [4]; HepG2, 0.76 µM for 72 h, control 0.13", "value": 12.17}, {"measurement": "Apoptosis Early", "setting": "HepG2 cells [4]; HepG2, 0.76 µM for 72 h, control 0.71", "value": 9.63}, {"measurement": "Necrosis", "setting": "HepG2 cells [4]; HepG2, 0.76 µM for 72 h, control 2.22", "value": 7.69}, {"measurement": "Apoptosis Total", "setting": "HepG2 cells [4]; HepG2, 0.76 µM for 72 h, control 3.06", "value": 29.49}, {"measurement": "proportion of HepG2 cells in late-stage apoptosis", "setting": "HepG2 cells [4]; HepG2, from 0.71% in control", "value": 9.63, "unit": "%"}, {"measurement": "proportion of HepG2 cells in early-stage apoptosis", "setting": "HepG2 cells [4]; HepG2, from 3.06% in control", "value": 29.49, "unit": "%"}]}
{"smiles": "CC(=NNC(=O)c1ccccc1Cl)c1ccc(NC(=O)Cn2c(=O)c3c(ncn3C)n(C)c2=O)cc1", "note": "[Compound 15b, N-(4-(1-(2-(2-Chlorobenzoyl)hydrazono)ethyl)phenyl)-2-(3,7-dimethyl-2,6-dioxo-2,3,6,7-tetrahydro-1H-purin-1-yl)acetamide]", "values": [{"measurement": "IC50", "setting": "MCF-7", "value": "0.65 ± 0.01", "unit": "µM"}, {"measurement": "IC50", "setting": "HepG2", "value": "0.78 ± 0.02", "unit": "µM"}]}
{"smiles": "CC(=NNC(=O)c1cccc(Cl)c1)c1cccc(NC(=O)Cn2c(=O)c3c(ncn3C)n(C)c2=O)c1", "note": "[Compound 16, N-(3-(1-(2-(3-Chlorobenzoyl)hydrazono)ethyl)phenyl)-2-(3,7-dimethyl-2,6-dioxo-2,3,6,7-tetrahydro-1H-purin-1-yl)acetamide]", "values": [{"measurement": "IC50", "setting": "MCF-7", "value": "2.47 ± 0.04", "unit": "µM"}, {"measurement": "IC50", "setting": "HepG2", "value": "1.23 ± 0.03", "unit": "µM"}]}
{"smiles": "CC(=NNC(=O)c1cccnc1)c1ccc(NC(=O)Cn2c(=O)c3c(ncn3C)n(C)c2=O)cc1", "note": "[Compound 17, 2-(3,7-Dimethyl-2,6-dioxo-2,3,6,7-tetrahydro-1H-purin-1-yl)-N-(4-(1-(2-nicotinoylhydrazono)ethyl)phenyl)acetamide]", "values": [{"measurement": "IC50", "setting": "MCF-7", "value": "0.8 ± 0.01", "unit": "µM"}, {"measurement": "IC50", "setting": "HepG2", "value": "1.05 ± 0.01", "unit": "µM"}]}
{"smiles": "CNC(=O)c1cc(Oc2ccc(NC(=O)Nc3ccc(Cl)c(C(F)(F)F)c3)cc2)ccn1", "note": "[Sorafenib, reference compound]", "values": [{"measurement": "IC50", "setting": "MCF-7", "value": "3.17 ± 0.01", "unit": "µM"}, {"measurement": "IC50", "setting": "HepG2", "value": "2.24 ± 0.06", "unit": "µM"}]}
